Legend:
[1] = tested on: subunit c of mitochondrial ATP synthase (SCMAS); test: Detection of storage materials by immunofluorescence of subunit c in motor cortex; type: in vivo, mouse; details: Cln2(−/−) mice, oral gem 7.5 mg/kg/day, 8 weeks
Protocol: (§1) Age- and sex-matched Cln2^(+/+) mice from the same background were used as wild type (WT) controls and Cln2^(−/−) animals were used in different treatment groups. Gem (7.5 mg/kg body wt/day) was dissolved in DMSO followed by dilution in 0.1% methyl cellulose (MeC). Cln2^(−/−) mice were either not fed (Un-untreated group), gavaged with 0.1% MeC (vehicle treated group) or gavaged with gem (gem-treated group) for 8 weeks for biochemical studies. Similar treatment regimen was followed as long as the animals are not considered to be morbid as described above for survival study. Here, 40 mice (20 male and 20 female) were used per group and animals (4 weeks old) were randomly selected for any group.
(§2) After 8 weeks of treatment, mice were sacrificed and their brains fixed, embedded, and processed. […] The samples were mounted and observed under Olympus IX41 fluorescence microscope. […] After acquiring images under 20×objective lens, images were further analyzed as follows. […] Once the area of the image was measured, touch counting program was applied to count number of fluorescent signals using simple mouse click method. […]
It was performed by monitoring subunit c of mitochondrial ATP synthase (SCMAS) by immunofluorescence. […] SCMAS-associated fluorescence intensity was quantified by using the Olympus Microsuite V software. […]

SOCS3 [2] = test: Double-label immunofluorescence of striatal sections for SOCS3 (GFAP, Iba1); type: in vivo, mouse; details: Cln2(−/−) mice, 8 weeks of oral gem, seen in astrocytes, microglia and other brain cells
Protocol: as §1
as §2, with “processed. Sections (30 μm) were made from different brain regions (motor cortex and striatum) using a Leica Cryostat and immunofluorescence staining on fresh frozen sections was performed as described (Corbett et al. 2015, Roy et al. 2015, Roy et al. 2016).” for “processed.”

astroglia or microglia = test: Astroglia and microglia in brain sections (GFAP, Iba1 immunofluorescence); type: in vivo, mouse; details: Cln2(−/−) mice, after gem treatment; motor cortex and striatum
Protocol: as §1
as §2, with “processed. Sections (30 μm) were made from different brain regions (motor cortex and striatum) using a Leica Cryostat and immunofluorescence staining on fresh frozen sections was performed as described (Corbett et al. 2015, Roy et al. 2015, Roy et al. 2016).” for “processed.”

[3] = cited from earlier work
SOCS3 [4] = test: Western blot of motor cortex and striatum extracts for SOCS3; type: in vivo, mouse; details: Cln2(−/−) mice, 8 weeks of oral gem; both motor cortex and striatum
Protocol: as §1
(§3) After 8 weeks of treatment, mice were sacrificed and cortex and striatum regions were isolated, homogenized in RIPA buffer (150 mM sodium chloride, 1.0% NP-40 or Triton X-100, 0.5% sodium deoxycholate, 0.1% SDS (sodium dodecyl sulphate), 50 mM Tris, pH 8.0), supernatant was taken and protein was estimated by BioRad protein assay. Equal amounts of protein from the tissue extract were separated in 12% or 15% Bis-Tris gels and proteins were transferred onto a nitrocellulose membrane (Bio-Rad) using the Thermo-Pierce Fast Semi-Dry Blotter (Corbett et al. 2015, Roy et al. 2015, Roy et al. 2016). […]

[5] = after oral administration; cited from earlier work
phospho-BAD (P-BAD) = test: Immunoblot of brain homogenates for phospho-BAD; type: in vivo, mouse; details: Cln2(−/−) mice, oral gem 7.5 mg/kg/day, 8 weeks
Protocol: as §1, §3

IL-1Ra [6] = test: Double-label immunofluorescence of striatal sections for IL-1Ra (GFAP, Iba1); type: in vivo, mouse; details: Cln2(−/−) mice, 8 weeks of oral gem, in both astrocytes and microglia
Protocol: as §1
as §2, with “processed. Sections (30 μm) were made from different brain regions (motor cortex and striatum) using a Leica Cryostat and immunofluorescence staining on fresh frozen sections was performed as described (Corbett et al. 2015, Roy et al. 2015, Roy et al. 2016).” for “processed.”

Cln2^(−/−) mice [7] = test: Survival study of Cln2(−/−) mice treated orally with gem; type: in vivo, mouse; details: gem 7.5 mg/kg body weight/day via gavage from 4 weeks of age
Description: Animal maintaining and experiments were in accordance with National Institute of Health guidelines and were approved by the Institutional Animal Care and Use committee (IACUC) of the Rush University of Medical Center, Chicago, Ill. […] However, if any mouse came to the moribund stage, it was decapitated after anesthesia with ketamine/xylazine injectables. Conditions for moribund were as follows: central nervous system disturbance (head tilt, seizures, tremors, circling, spasticity, and paresis); inability to remain upright; evidence of muscle atrophy; chronic diarrhea or constipation; rough coat and distended abdomen; preading area of alopecia caused by disease; coughing, rales, wheezing and nasal discharge; distinct jaundice and/or paleness (anemia); markedly discolored urine, polyuria or anuria; frank bleeding from any orifice; persistent self-induced trauma. Cln2^(+/−) animals were kindly provided by Dr. Peter Lobel (Center for Advanced Biotechnology and Medicine, Robert Wood Johnson Medical School, Piscataway, N.J., USA). These animals were inbred and subsequent generations were screened by RTPCR to further obtain Cln2^(+/+), Cln2^(+/−) and Cln2^(−/−) strains. […]
All values are expressed as means±SEM. […]

IL-1Ra [8] = test: Western blot of motor cortex and striatum extracts for IL-1Ra; type: in vivo, mouse; details: Cln2(−/−) mice, 8 weeks of oral gem; both motor cortex and striatum
Protocol: as §1, §3

Cln2^(−/−) mice [9] = test: Locomotor activity (Digiscan Monitor open field) in Cln2(−/−) mice; type: in vivo, mouse; details: oral gem 7.5 mg/kg/day, after 8 weeks of treatment
Protocol: as §1
Locomotor activities were measured in Cln2^(−/−) mice after 8 weeks of gem treatment using Digiscan Monitor (Omnitech Electronics, Inc., Columbus, Ohio) as described by us (Khasnavis & Pahan 2014, Ghosh et al. 2007, Ghosh et al. 2009). This Digiscan Monitor records basic locomotion parameters, such as horizontal activity, total distance traveled, movement time, rest time, etc. as well as stereotypy, behavior that is directly controlled by striatum. […] DIGISCAN software was used to analyze and store horizontal and vertical activity data, which were monitored automatically by infra-red beams. […]

NeuN-positive neurons = test: Neuronal apoptosis, NeuN/TUNEL double-labeling of brain sections; type: in vivo, mouse; details: Cln2(−/−) mice, oral gem 7.5 mg/kg/day, 8 weeks
Protocol: Reagents for TUNEL assay on frozen brain sections were purchased from EMD Millipore (Billerica, Mass.) and experiments were performed according to manufacturer's protocol. Blocking buffer and secondary antibodies for immune blot (IB) (IRDye 700 or IRDye 800—labelled) were purchased from Licor (Lincoln, Nebr.). Secondary antibodies for immunohistochemistry (IHC) (FITC or Cy5—labeled) were purchased from Jackson ImmunoResearch (West Grove, Pa.).
Age- and sex-matched Cln2^(+/+) mice from the same background were used as wild type (WT) controls and Cln2^(−/−) animals were used in different treatment groups. Gem (7.5 mg/kg body wt/day) was dissolved in DMSO followed by dilution in 0.1% methyl cellulose (MeC). Cln2^(−/−) mice were either not fed (Un-untreated group), gavaged with 0.1% MeC (vehicle treated group) or gavaged with gem (gem-treated group) for 8 weeks for biochemical studies. […]
as §2

## Cc1ccc(C)c(OCCCC(C)(C)C(=O)O)c1 [gem, 5-(2,5-dimethylphenoxy)-2,2-dimethylpentanoic acid]
[1]
  SCMAS storage material in the motor cortex: significant decrease in SCMAS
SOCS3 [2]
  SOCS3 in the striatum, immunofluorescence: marked increase in SOCS3
Astroglia or microglia
  number of astroglia or microglia: did not observe any reduction in either astroglia or microglia
[3]; human and animal studies
  tolerability: well tolerated
[3]; oral drug
  toxicity: fairly nontoxic
SOCS3 [4]
  SOCS3 level, Western blot: increase in SOCS3
[5]
  entry into the CNS: enters into the CNS
phospho-BAD (P-BAD); motor cortex
  level of P-BAD in the motor cortex: upregulation of P-BAD
phospho-BAD (P-BAD); striatum
  level of P-BAD in the striatum: increased the level of P-BAD
IL-1Ra [6]
  IL-1Ra in the striatum, immunofluorescence: restoration and/or upregulation of IL-1Ra
Cln2^(−/−) mice [7]
  increase of the lifespan: more than 2 months
Cln2^(−/−) mice [7]; untreated all died within 137 days, vehicle within 150 days
  survived until: 204 days
IL-1Ra [8]
  IL-1Ra level, Western blot: increase
Cln2^(−/−) mice [9]
  locomotor activities (horizontal activity, movement time, number of movement, total distance, stereotypy counts, rest time): significantly improved locomotor activities
NeuN-positive neurons; motor cortex
  neuronal apoptosis (NeuN+TUNEL+ cells) in the motor cortex: strongly inhibited neuronal apoptosis
NeuN-positive neurons; striatum
  neuronal apoptosis (NeuN+TUNEL+ cells) in the striatum: reduced neuronal apoptosis

From patent US11020366B2, “Locomotor activity and increase in longevity of late infantile neuronal ceriod lipofuscinosis subjects by Gemfibrozil” (Rush University Medical Center, priority 2016, dated 2021)
